Patent publication US5656603A (Loyola University of Chicago, priority 1995, dated 1997)
Several values for one entry are separate records, joined by “and”; a condition that tells them apart may be missing. Equal values may be shown once. Entries after “also recorded” stand apart in the source; their conditions may differ.

How the values were obtained:
[1] = test system: [3H]-bradykinin degradation in the isolated perfused rat lung; test: [3H]-bradykinin degradation in the isolated perfused rat lung (HPLC of perfusate)
Protocol: Using the procedure described herein, under Experimental Procedures it was determined that aminopeptidase P contributed to Bk degradation in the mammalian lung. In that procedure, [^3 H]-Bk (labelled in Pro^2 and Pro^3) was perfused through the isolated lung in the presence or absence of various peptidase inhibitors. The perfusate was then analyzed for radiolabelled products by HPLC. […] Most of the radioactivity (an average of 79%) was in the form of [^3 H]-Pro-Pro [Bk(2-3)] with the remainder being [^3 H]-Bk(1-5). It was hypothesized that pulmonary vascular aminopeptidase P was cleaving the Arg'-Pro^2 bond followed by rapid removal of Pro-Pro by dipeptidylpeptidase IV (DPP IV) (12). Simultaneously, angiotensin converting enzyme (ACE) was sequentially removing Phe-Arg and Ser-Pro from the C-terminus (13). […] However, most of the radioactivity remained in the Pro-Pro peak indicating substantial cleavage of Bk at the N-terminal end.
Perfusion of the Isolated Rat Lung--Male Sprague Dawley rats, weighing 300-500 grams, were anesthetized with sodium pentobarbital (50-75 mg/kg) given by intraperitoneal injection. The trachea was cannulated and the lungs ventilated with air at 70 cycles per minute (Harvard Small Animal Ventilator) at a pressure of 70 mm H2 O. The heart and lungs were exposed via midsternal incision and 1000 units of heparin were administered intracardially. Polyethylene cannulae were secured into the pulmonary artery and the left ventricle. A modified Krebs buffer (118.5 mM NaCl, 4.7 mM KCl, 1.1 mM KH2 PO4, 1.1 mM MgSO4, 2.5 mM CaCl2, 19.6 mM NaHCO3, 5.6 mM dextrose), which was kept in a 50° C. water bath and aerated with 95% O2 -5% CO2 to pH 7.35, was perfused into the pulmonary artery at 35° C. and 2.6 ml/min (LKB Microperplex peristaltic pump). The buffer was circulated through the isolated lung in situ until the effluent was free of blood. The surgical field was maintained at 37° .C with a heat lamp throughout the procedure. Experiments were conducted by introducing [^3 H]-Bk in the presence or absence of test peptidase inhibitors into the pulmonary circulation via the pulmonary artery and then collecting perfusion effluent from the left ventricular cannula. […] The lung was then perfused with 1 μCi [^3 H]-Bk in 1 ml of the inhibitor solution (giving 16 nM Bk) followed by inhibitor solution alone. Effluent was collected in tubes (0.5 min/fraction) containing 150 μl of 2% TFA. For each lung preparation, 5-6 samples were perfused over a period of about one hour. Control perfusions of [^3 H]-Bk alone were always carried out before perfusions of samples containing ramiprilat because of the slow reversibility of inhibition of ACE by this compound. […] The effects of the latter two inhibitors were reversible.
Separation and Identification of Bradykinin Metabolites--The fractions which were collected from each perfusion sample run were counted for radioactivity, and the fraction having the highest radioactive counts was prepared for HPLC by filtration through a Centricon-10 microconcentrator (Amicon). An aliquot of the filtrate containing 25000 dpm (approx. 25 μl) was spiked with a cocktail of unlabelled Bk fragments (3 μl) and then subjected to HPLC using a Waters Radial Compression Separation System with a 5μ NOVA PAK C18 Radial Pak Cartridge. The column was developed at a flow rate of 1 ml/min with a 60 min linear gradient from 100% Solvent A (0.1% TFA in water) to 75% Solvent A: 25% Solvent B (0.08% TFA in acetonitrile) using a Spectra Physics 8700XR Solvent Delivery System. The column effluent was simultaneously monitored for absorbance at 206 nm (LKB Uvicord S) and for radioactivity (Radiomatic Flo-One HS Radioactive Flow Detector using Ultima-Flo M scintillation fluid from Packard, Meriden, Conn.). […] Radioactive peaks were identified by comparison of the retention times to those of the unlabelled standards. […]

[2] = molecular target: T1, partially purified human lung membrane-bound aminopeptidase P (Homo sapiens, UniProt O43895); test: Aminopeptidase P inhibition, release of arginine from Arg-Pro-Pro (fluorescent assay); format: biochemical; conditions: human lung aminopeptidase P; for IC50: cleavage of 0.5 μM Arg-Pro-Pro in 0.1M Hepes, pH 8.0 at 37° C.
T1 construct: from tissue; host or cells: human lung microsomes
T1 sequence (O43895 22-674): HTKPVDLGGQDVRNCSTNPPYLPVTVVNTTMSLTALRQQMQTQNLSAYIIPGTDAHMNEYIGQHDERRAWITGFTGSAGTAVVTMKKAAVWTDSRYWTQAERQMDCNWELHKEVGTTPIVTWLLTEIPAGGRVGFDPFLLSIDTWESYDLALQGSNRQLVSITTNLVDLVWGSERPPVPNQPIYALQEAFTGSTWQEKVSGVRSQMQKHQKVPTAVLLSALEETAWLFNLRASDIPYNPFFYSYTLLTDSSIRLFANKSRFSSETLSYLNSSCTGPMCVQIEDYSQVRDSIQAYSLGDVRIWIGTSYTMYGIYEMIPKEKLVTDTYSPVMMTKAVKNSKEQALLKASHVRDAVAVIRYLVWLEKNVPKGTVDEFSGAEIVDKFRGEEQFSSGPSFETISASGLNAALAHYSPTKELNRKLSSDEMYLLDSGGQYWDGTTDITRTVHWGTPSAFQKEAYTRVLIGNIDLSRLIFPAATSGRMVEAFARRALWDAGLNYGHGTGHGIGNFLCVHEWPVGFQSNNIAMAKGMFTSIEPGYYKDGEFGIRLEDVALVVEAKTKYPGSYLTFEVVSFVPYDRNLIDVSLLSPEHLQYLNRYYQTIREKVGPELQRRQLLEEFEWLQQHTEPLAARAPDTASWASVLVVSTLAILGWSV
Protocol: The IC50 of the compound of the present invention in relation to aminopeptidase P was also determined. […] The specificity of the compound of the present invention for other aminopeptidases was similarly determined as described in the Experimental Procedures herein.
(§1) Enzymes--Membrane-bound aminopeptidase P was purified to homogeneity from bovine lung (14) and from rat lung. Partially purified membrane-bound aminopeptidase P from human lung was obtained by treatment of lung microsomes with phosphatidylinositol-specific phospholipase C (B. thuringiensis) (ICN, Costa Mesa, Calif.) followed by centrifugation as described previously (14). Membrane dipeptidase was purified from rat lung microsomes (manuscript in preparation). Recombinant E. coli aminopeptidase P (22) and purified lamb kidney prolyl oligopeptidase (23) were generally supplied by Dr. Tadashi Yoshimoto (Nagasaki University). Purified porcine kidney prolidase and purified porcine kidney aminopeptidase M was obtained from Sigma (St. Louis, Mo.).
Enzyme Kinetics--Aminopeptidase P activity was determined by measuring the release of arginine from Arg-Pro-Pro by a fluorescent assay described previously (14). […] Each mixture was run in duplicate. Aliquots were removed from each incubation mixture at various times and assayed for the amount of arginine present to determine the reaction velocity. In general, reaction velocities were calculated from data representing less than 20% cleavage of substrate. Ki and Ki ' (=αKi) were determined from plots of 1/v versus concentration of inhibitor "i" (26) and S/v versus concentration of inhibitor "i" (27), respectively. These parameters were also determined from the slope replot and 1/v-intercept replot, respectively, of the 1/v versus 1/S plot (28). […] The values from the two treatments of the data were averaged for each experiment. Experiments for each enzyme preparation were performed twice and the results averaged.

[3] = molecular target: T2, purified bovine lung membrane-bound aminopeptidase P (Bos taurus, UniProt E1B735); test: as above; format: biochemical; conditions: bovine lung aminopeptidase P; cleavage of 0.5 μM Arg-Pro-Pro in 0.1M Hepes, pH 8.0 at 37° C.
T2 construct: from tissue; host or cells: bovine lung
T2 sequence (E1B735 22-673): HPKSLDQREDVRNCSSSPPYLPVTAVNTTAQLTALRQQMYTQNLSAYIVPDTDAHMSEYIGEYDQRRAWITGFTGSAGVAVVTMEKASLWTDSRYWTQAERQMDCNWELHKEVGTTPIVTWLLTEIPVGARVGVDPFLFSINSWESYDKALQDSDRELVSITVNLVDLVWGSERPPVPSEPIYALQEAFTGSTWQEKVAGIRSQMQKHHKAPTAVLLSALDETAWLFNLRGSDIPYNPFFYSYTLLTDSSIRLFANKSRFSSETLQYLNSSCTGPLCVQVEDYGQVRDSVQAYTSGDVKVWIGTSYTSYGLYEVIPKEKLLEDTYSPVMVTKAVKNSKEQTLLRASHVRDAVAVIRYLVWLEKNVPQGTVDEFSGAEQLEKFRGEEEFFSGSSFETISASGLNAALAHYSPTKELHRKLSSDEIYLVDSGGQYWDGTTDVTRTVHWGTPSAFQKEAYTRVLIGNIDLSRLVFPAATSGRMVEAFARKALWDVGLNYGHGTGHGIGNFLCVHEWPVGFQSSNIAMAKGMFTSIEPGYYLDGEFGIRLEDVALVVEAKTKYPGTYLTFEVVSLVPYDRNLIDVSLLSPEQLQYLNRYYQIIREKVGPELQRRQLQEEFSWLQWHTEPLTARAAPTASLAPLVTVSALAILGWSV
Protocol: The IC50 of the compound of the present invention in relation to aminopeptidase P was also determined. […] The specificity of the compound of the present invention for other aminopeptidases was similarly determined as described in the Experimental Procedures herein. […] The following enzymes had IC50 values>800 μM: aminopeptidase A, angiotensin converting enzyme, dipeptidyl-peptidase I-like activity, bestatin-sensitive/amastatin-insensitive membrane dipeptidase (29), microsomal dipeptidase, endopeptidase 24.11, endopeptidase 24.15, and prolyl oligopeptidase.
as §1
Enzyme Kinetics--Aminopeptidase P activity was determined by measuring the release of arginine from Arg-Pro-Pro by a fluorescent assay described previously (14). […] Each mixture was run in duplicate. Aliquots were removed from each incubation mixture at various times and assayed for the amount of arginine present to determine the reaction velocity. In general, reaction velocities were calculated from data representing less than 20% cleavage of substrate. Ki and Ki ' (=αKi) were determined from plots of 1/v versus concentration of inhibitor "i" (26) and S/v versus concentration of inhibitor "i" (27), respectively. These parameters were also determined from the slope replot and 1/v-intercept replot, respectively, of the 1/v versus 1/S plot (28). See e.g., FIG. 1B. The values from the two treatments of the data were averaged for each experiment. Experiments for each enzyme preparation were performed twice and the results averaged.

[4] = isolated perfused rat lung, modified Krebs buffer; conditions: Male Sprague Dawley rats, 35° C.
[5] = test system: membrane-bound aminopeptidase P; test: partially purified human lung membrane-bound aminopeptidase P in 0.1 M Hepes, pH 8.0; conditions: 39° C.

Molecule: C[C@H](N[C@@H](CCc1ccccc1)C(=O)O)C(=O)N1[C@H](C(=O)O)C[C@@H]2CCC[C@@H]21 [ramiprilat]
- percentage of radioactivity eluting from the lung as intact [3H]-Bk ([1]; ramiprilat (0.5 μM) alone in the perfusion medium, mean ± SEM, three rats): 22±6% and 22%
- fold increase of intact [3H]-Bk eluting from the lung ([1]; ramiprilat alone versus no inhibitor (unmeasurable levels)): ≥ 22 fold

Molecule: CC(C)C[C@H](N)[C@@H](O)C(=O)N1CCC[C@H]1C(=O)N1CCC[C@H]1C(=O)N[C@@H](C)C(N)=O [(2R,3S), N-[(2R,3S)-3-amino-2-hydroxy-5-methylhexanoyl]-L-prolyl-L-prolyl-L-alaninamide]
- IC50 [2]: 0.43 µM
- IC50 [3]: 2.1 µM

Molecule: CC(C)C[C@@H](N)[C@H](O)C(=O)N1CCC[C@H]1C(=O)N1CCC[C@H]1C(=O)N[C@@H](C)C(N)=O [(2S,3R), N-[(2S,3R)-3-amino-2-hydroxy-5-methylhexanoyl]-L-prolyl-L-prolyl-L-alaninamide]
- IC50 [2]: 0.23 µM
- IC50 relative to the IC50 of apstatin ([2]; versus apstatin […]): approximately ten-fold
- IC50 [3]: 4.5 µM

Molecule: CC(C)C[C@@H](N)[C@H](O)C(=O)N[C@H](C(=O)N[C@H](C(=O)N[C@@H](CC(=O)O)C(=O)O)C(C)C)C(C)C [amastatin, [(2S, 3R)-3-amino-2-hydroxy-5-methylhexanoyl]-Val-Val-Asp]
- effect on the pattern of metabolites ([1]; 100 μM along with ramiprilat in the perfusion medium (data not shown)): no significant effect

Molecule: CC[C@H](C)[C@H](N)C(=O)N1CCC[C@H]1C(=O)N[C@H](C(=O)O)[C@@H](C)CC [diprotin A, Ile-Pro-Ile]
- form of radioactivity eluted from the lung ([1]; diprotin A present along with ramiprilat (data not shown)): most of the radioactivity eluted from the lung in the form of [^3 H]-Bk(2-9)

Molecule: [2,3-Prolyl-3,4-^3 H(N)]-bradykinin
- cleaved bond [4]: rapid removal of Pro-Pro by dipeptidylpeptidase IV (DPP IV); also recorded: Pro7-Phe8; also recorded: removing Ser-Pro from the C-terminus (after Phe-Arg); also recorded: Arg1-Pro2, major; also recorded: [^3 H]-Pro-Pro arose by DPP IV cleavage of [^3 H]-Bk(2-9)
- fragment found [4]: [^3 H]-Bk(1-5), major; also recorded: [^3 H]-Pro-Pro, minor
- not cleaved [4]: no [^3 H]-Bk(1-7) was observed in the perfusate

Molecule: Arg-Pro-Pro
- cleaved bond [5]: Arg-Pro
